Measured values published in patent US20230322805A1, “NOVEL PYRIMIDODIAZEPINE DERIVATIVES OR USES THEREOF” (SPARK BIOPHARMA, INC., priority 2020, published 2023).

How the values were obtained:
[1] = tested on: DsRed-IRES-tau EGFP HEK293 cells; test: Flow cytometry of DsRed-IRES-tau EGFP HEK293 cells (tau clearance); assay type: cell-based, human; details: 5 μM compound with 100 nM TG for 20 hours
[2] = target: T1, PDIA3 (PDI reductase activity) (Homo sapiens, UniProt P30101); test: PEG maleimide modification assay of PDI oxidation state; assay type: cell-based; details: BiFC-tau HEK293 cells, 200 nM TG and 40 μM SB1617 for 3.5 hours, versus thapsigargin alone
T1 construct: endogenous in cells; host or cells: HEK293 BiFC-tau cells (TS-FITGE, CETSA, PEG-maleimide assay)
T1 sequence (P30101 25-505): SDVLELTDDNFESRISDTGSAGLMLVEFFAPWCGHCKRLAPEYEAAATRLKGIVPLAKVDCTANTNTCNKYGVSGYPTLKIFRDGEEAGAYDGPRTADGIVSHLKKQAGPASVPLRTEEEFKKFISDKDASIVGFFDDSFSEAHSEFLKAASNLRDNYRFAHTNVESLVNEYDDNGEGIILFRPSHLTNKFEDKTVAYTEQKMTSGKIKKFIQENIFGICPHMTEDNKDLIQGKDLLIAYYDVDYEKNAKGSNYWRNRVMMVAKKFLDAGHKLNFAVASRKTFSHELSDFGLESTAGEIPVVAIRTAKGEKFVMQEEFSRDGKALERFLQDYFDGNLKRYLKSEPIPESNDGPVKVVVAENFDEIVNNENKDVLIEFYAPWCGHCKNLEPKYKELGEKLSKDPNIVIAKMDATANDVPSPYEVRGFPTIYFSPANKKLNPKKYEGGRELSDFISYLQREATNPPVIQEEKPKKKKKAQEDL
Description: Cysteine modification analysis using PEG maleimide was performed according to the paper (P. Kranz, F. Neumann, A. Wolf, F. Classen, M. Pompsch, T. Ocklenburg, J. Baumann, K. Janke, M. Baumann, K. Goepelt, H. Riffkin, E. Metzen, U. Brockmeier, PDI is an essential redox-sensitive activator of PERK during the unfolded protein response (UPR). Cell Death Dis. 8, e2986 (2017)).
After compound treatment, BiFC-tau HEK293 cells were washed with cold PBS, incubated with 20 mM N-ethylmaleimide (NEM, Sigma Aldrich) in PBS for 20 minutes on ice to alkylate the reduced form of cysteine, and after washing with cold PBS, the cells were lysed in RIPA buffer. For whole cell analysis, the lysate was centrifuged at 200 g for 5 min at 4° C. to remove insoluble material. Protein concentration in the supernatant was analyzed by Pierce BCA Protein Assay Kit. Equal amounts of each lysate were treated with 12 mM tris(2-carboxyethyl)phosphine (TCEP, Sigma Aldrich) for 20 minutes at room temperature to reduce the form of oxidized PDI. Lysates were incubated with 15 mM methoxy polyethylene glycol 5000 maleimide (mPEG-mal5000, Sigma Aldrich) for 1 hour at room temperature. […]
3-2. […] Maleimides with two different molecular weights allow the bands of oxidized and reduced forms of PDI to be readily separated by electrophoresis.

[3] = tested on: acute Alzheimer's mouse model; test: Acute Alzheimer's mouse model (acquisition and probe test); assay type: in vivo
Description: 7-1. Potential therapeutic effect of SB1617 in an acute Alzheimer's mouse model was identified, and the design for the experiment is schematically shown in FIG. 40
7-3. As a result of confirming the treatment efficacy through a probe test, after removing the platform, it was performed by recording how many times the mouse passed the position where the platform was […]

PDIA3 = target: T2, PDIA3 (Homo sapiens, UniProt P30101); test: TS-FITGE thermal stability shift; assay type: binding; parameters: endogenous in cells; host or cells: HEK293 BiFC-tau cells (TS-FITGE, CETSA, PEG-maleimide assay); details: 10 μM, 200 nM thapsigargin, 3 hours, HEK293 BiFC-tau cells
T2 sequence (P30101 25-505): T1 sequence (P30101 25-505)
Description: HEK293 BiFC-tau cells were treated with dimethylsulfoxide (DMSO, 0.1%) and a compound according to the present invention (10 μM) in the presence of thapsigargin (200 nM) for 3 hours. The cell suspension was heated at the indicated temperature range for 3 minutes and then at 25° C. for 3 minutes. The heated cells were washed with PBS and resuspended in lysis buffer A (0.4% NP-40 in PBS supplemented with protease inhibitor cocktail). For cell lysis, cell suspensions were freeze-thawed in liquid nitrogen three times. The cell lysate was washed by centrifugation at 20000 g, 4° C. for 20 minutes. Protein concentration of the soluble fraction was quantified by Pierce BCA protein assay. After precipitating 50 μg of protein with cold acetone, it was centrifuged at […] and 4° C. for 7 minutes. The residual pellet was resuspended in 10 μl of conjugation buffer (30 mM Tris-HCl at pH 8.6, 30 mM thiourea, 7 M urea and 4% w/v CHAPS). 1 μl of 0.4 mM Cy2-N-hydroxysuccinimide(Cy2-NHS) (for DMSO-treated group), Cy3-NHS (for SB1607-treated group) or Cy5-NHS (for SB1617-treated group) was mixed with the protein and incubated at 4° C. for 45 minutes. […] Protein spot locations and fluorescence signals were analyzed with DeCyder 2D software ver. […]

## CN(Cc1ccc(Cl)cc1)c1ncnc2c1[C@@H]1OC[C@H](CN2)N1S(=O)(=O)c1ccc([N+](=O)[O-])cc1 [Compound 117]
[1]
  EGFP-to-DsRed signal ratio: decreased
[2]
  oxidation state of PDI: significantly converted from the reduced form to the oxidized form
[3]; acute Alzheimer's mouse model
  learning ability (Acquisition test), rank order: WT >Donepezil >SB-1617>Vehicle
[3]; compared to the vehicle
  probe test, number of times of entering the SW quadrant space: significantly higher value
  probe test, number of times passing the virtual platform: significantly higher value
  probe test, time to reach the platform: significantly lower value
[3]; mouse, in vivo
  probe test, percentage (%) of the time spent in the quadrant where the platform exists: remembered the location of the platform well
PDIA3
  thermal stability of protein (TS-FITGE): thermal stability of the protein was improved
